The source of these data is patent publication US20120214862A1, “MODULATION OF FACTOR 7 EXPRESSION” (ISIS Pharmaceuticals, Inc., priority 2009, published 2012).

In the oligonucleotide strings, read from the 5' end, every base follows the letter of its sugar. An asterisk marks phosphorothioate; unmarked linkages are phosphodiester. Other units and linkages are bracketed, terminal groups are in braces. A string of capitals states the bases alone. e = 2'-O-(2-methoxyethyl) (MOE); [5mC] = 5-methylcytosine; d = 2'-deoxy (DNA)

The first data set relates to human Factor 7 mRNA. Nature of the data set: Antisense inhibition of human Factor 7 mRNA in HepB3 cells, lipofectin, 50 nM, real-time RT-PCR. Format: cell-based. The settings on record: Example 1; HepB3 cells, lipofectin, 50 nM, ~24 h, relative to untreated control cells. In outline: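 After transfection of wells containing 4,000 cells, treatment ran for approximately 24 h. RIBOGREEN®-measured total RNA served for normalisation, and inhibition was calculated as a percentage of untreated control.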
Regarding “407649 (antisense eG*eA*eG*eG*eG*dT*dT*d[5mC]*dA*dT*dT*dT*d[5mC]*dA*dG*eT*eG*eA*eT*eG) [compound 407649]”, the “% Inhibition (human Factor 7 mRNA)” value was 24%. Same read-out and setting: the result for “407897 (antisense eG*e[5mC]*eT*eT*eG*dG*dT*dG*d[5mC]*d[5mC]*d[5mC]*dG*dT*dG*dT*eG*eG*eT*e[5mC]*eA) [compound 407897]” reads 77%; that for “407937 (antisense eG*eA*eA*eG*eG*dG*dA*dG*dA*dA*dA*dT*dA*d[5mC]*dA*eT*eT*eT*eG*eG) [compound 407937]”, 59%; that for “407667 (antisense eG*eT*eG*eG*e[5mC]*d[5mC]*dA*dT*dG*d[5mC]*d[5mC]*d[5mC]*dT*dG*dG*eG*eT*e[5mC]*eA*eG) [compound 407667]”, 71%. Same read-out and setting: to “407610 (antisense eA*eG*eG*eG*eA*dG*dG*d[5mC]*dA*dG*dA*dA*dG*d[5mC]*dA*eG*eA*eT*eA*eT) [compound 407610]” belongs 31%; to “407933 (antisense eT*eG*eA*eT*eA*dA*dT*dG*dG*dA*dT*dA*dA*dG*dA*eA*e[5mC]*e[5mC]*eA*eG) [compound 407933]”, 58%; to “407630 (antisense e[5mC]*eA*e[5mC]*eA*eT*dG*dG*dT*d[5mC]*dA*dG*dT*dG*dA*dG*eG*eA*e[5mC]*e[5mC]*eA) [compound 407630]”, 29%. The same measure, in the same setting: the result for “407903 (antisense e[5mC]*e[5mC]*eG*e[5mC]*eG*dG*dA*dG*dA*d[5mC]*d[5mC]*dA*d[5mC]*d[5mC]*d[5mC]*eA*eG*eA*eT*eG) [compound 407903]” reads 98%. Take “407956 (antisense eA*eA*e[5mC]*eT*eT*dG*d[5mC]*dA*dT*dT*dT*dA*dG*dT*dG*eA*eT*eG*e[5mC]*eG) [compound 407956]”: the “% Inhibition (human Factor 7 mRNA)” value amounted to 19%. The same measure, in the same setting: the result for “407651 (antisense eA*eG*e[5mC]*e[5mC]*eT*d[5mC]*dA*dA*dA*d[5mC]*dA*dT*d[5mC]*dT*dA*eT*e[5mC]*eA*eA*eA) [compound 407651]” reads 32%.

The same data set, now with this note: Example 4; HepB3 cells, lipofectin, 50 nM, ~24 h, relative to untreated control.
Consider “422186 (antisense eG*eG*eA*dA*dG*dA*dA*dG*dG*dG*dA*d[5mC]*dG*dG*dA*dA*dG*eG*eT*eG) [compound 422186]”, for which the “% Inhibition (human Factor 7 mRNA)” value came out at 14%. Same read-out and setting: the result for “422270 (antisense eT*eG*dA*dG*d[5mC]*dG*d[5mC]*dG*dG*dA*dA*dG*dA*dA*dG*eG*eG*eA*e[5mC]*eG) [compound 422270]” reads 15%; that for “422196 (antisense eT*eA*e[5mC]*dT*dG*dA*dG*d[5mC]*dG*d[5mC]*dG*dG*dA*dA*dG*dA*dA*eG*eG*eG) [compound 422196]”, 2%. Consider “422199 (antisense eG*eG*eT*dT*dA*d[5mC]*dT*dG*dA*dG*d[5mC]*dG*d[5mC]*dG*dG*dA*dA*eG*eA*eA) [compound 422199]”, for which the “% Inhibition (human Factor 7 mRNA)” value is reported as 65%. The same measure, in the same setting: to “422197 (antisense eT*eT*eA*d[5mC]*dT*dG*dA*dG*d[5mC]*dG*d[5mC]*dG*dG*dA*dA*dG*dA*eA*eG*eG) [compound 422197]” belongs 26%.

Still in this data set, the particulars now being: Example 6 microwalk, nucleobases 15098 to 15122 of SEQ ID NO: 1; HepB3, lipofectin, 50 nM, ~24 h.
Consider “422137 (antisense eA*e[5mC]*eA*eG*e[5mC]*dA*d[5mC]*dA*d[5mC]*dA*dT*dG*dG*dA*dG*eT*e[5mC]*eA*eG*e[5mC]) [compound 422137]”, for which the “% Inhibition (human Factor 7 mRNA)” value worked out at 45%.

Staying with this data set, now noted: HepB3 cells, lipofectin, 50 nM antisense oligonucleotide, approximately 24 hours, primer probe set RTS 2927, relative to untreated control.
As for “416533 (antisense eG*e[5mC]*eA*eT*eT*d[5mC]*dT*dG*dG*dA*d[5mC]*d[5mC]*d[5mC]*dA*dG*eA*eT*eG*eA*e[5mC]) [compound 416533]”, the “% Inhibition of human Factor 7 mRNA levels” value is reported as 41%. Regarding “416473 (antisense e[5mC]*e[5mC]*e[5mC]*eT*eG*d[5mC]*d[5mC]*d[5mC]*d[5mC]*dT*d[5mC]*dT*dG*dT*d[5mC]*e[5mC]*eA*eG*e[5mC]*eG) [compound 416473]”, the “% Inhibition of human Factor 7 mRNA levels” value is given as 61%. Still for that read-out and setting: the result for “416478 (antisense eG*eT*e[5mC]*eT*e[5mC]*d[5mC]*dA*dG*d[5mC]*dA*dA*dT*dG*dA*dA*eG*eG*e[5mC]*eA*eG) [compound 416478]” reads 44%. Still for that read-out and setting: to “416529 (antisense eG*eG*eG*e[5mC]*eT*dG*dA*dG*dA*d[5mC]*dT*dG*dA*dG*dG*eT*e[5mC]*eA*eG*e[5mC]) [compound 416529]” belongs 18%. With “416506 (antisense e[5mC]*eT*eT*eT*eA*dA*dA*dA*dT*d[5mC]*dA*dG*dT*dT*dT*e[5mC]*eA*e[5mC]*eA*e[5mC]) [compound 416506]”, the “% Inhibition of human Factor 7 mRNA levels” value came to 18%. On the same count and under the same terms, to “416538 (antisense e[5mC]*eG*eT*eG*eG*dA*d[5mC]*dT*dG*dA*dT*d[5mC]*d[5mC]*dA*dA*eA*eG*eG*eA*e[5mC]) [compound 416538]” belongs 46%; to “416495 (antisense eT*e[5mC]*eT*eA*eG*dA*dA*dT*dT*d[5mC]*d[5mC]*dA*dA*dA*d[5mC]*e[5mC]*e[5mC]*e[5mC]*eT*eA) [compound 416495]”, 0%.

In the case of “416552 (antisense eT*e[5mC]*eT*eG*e[5mC]*dA*d[5mC]*dA*dG*dG*dG*dT*dA*dG*dA*e[5mC]*e[5mC]*e[5mC]*eT*e[5mC]) [compound 416552]”, the “% Inhibition of human Factor 7 mRNA levels” value turned out to be 46%. On the same count and under the same terms, to “416430 (antisense eG*e[5mC]*eA*eG*e[5mC]*dT*d[5mC]*d[5mC]*dT*d[5mC]*d[5mC]*dA*dG*dG*dA*eA*e[5mC]*eG*e[5mC]*eG) [compound 416430]” belongs 52%; to “416519 (antisense eA*eA*eA*eT*eA*dT*dG*dG*dG*dA*d[5mC]*d[5mC]*d[5mC]*dA*dA*eA*eG*eT*eG*eG) [compound 416519]”, 9%. Still for that read-out and setting: to “416544 (antisense eA*eT*e[5mC]*e[5mC]*e[5mC]*dA*dT*dT*dT*dT*d[5mC]*d[5mC]*d[5mC]*dA*dG*eG*eA*eG*e[5mC]*e[5mC]) [compound 416544]” belongs 58%.

On to “416559 (antisense eG*e[5mC]*e[5mC]*eA*eT*dT*dT*d[5mC]*dT*dA*dG*dG*dT*d[5mC]*dT*eG*e[5mC]*eA*eG*eG) [compound 416559]”, for which the “% Inhibition of human Factor 7 mRNA levels” value is listed as 25%. On the same count and under the same terms, to “416429 (antisense eA*e[5mC]*eG*e[5mC]*e[5mC]*dG*dT*dG*dG*dG*d[5mC]*dT*dT*d[5mC]*d[5mC]*eT*e[5mC]*e[5mC]*eT*eG) [compound 416429]” belongs 47%.

Staying with this data set, now noted: HepB3 cells; gapmers (5-10-5, 3-14-3, 2-13-5 MOE) targeted to nucleobases 4868 to 4899 of SEQ ID NO: 1.
As for “422139 (antisense eT*eT*e[5mC]*eT*eG*d[5mC]*dA*dG*dG*dA*dG*d[5mC]*dG*dG*d[5mC]*e[5mC]*eT*eA*eA*eA) [compound 422139]”, the “% Inhibition of human Factor 7 mRNA levels” value was determined as 66%. For the substance “422219 (antisense e[5mC]*e[5mC]*eG*dA*dG*dT*dT*d[5mC]*dT*dG*d[5mC]*dA*dG*dG*dA*dG*d[5mC]*eG*eG*e[5mC]) [compound 422219]”, the “% Inhibition of human Factor 7 mRNA levels” value turned out to be 65%.

The same data set, now with this note: HepB3 cells; gapmers targeted to nucleobases 11830 to 11869 of SEQ ID NO: 1 (Table 9).
“422154 (antisense eT*e[5mC]*eA*dG*dG*dG*d[5mC]*dT*dG*dG*dT*dT*dT*dT*dG*dG*dA*eG*eG*eA) [compound 422154]”: the “% Inhibition of human Factor 7 mRNA levels” value is on record as 31%. For “422088 (antisense eT*e[5mC]*eA*eG*eG*dG*d[5mC]*dT*dG*dG*dT*dT*dT*dT*dG*eG*eA*eG*eG*eA) [compound 422088]”, the “% Inhibition of human Factor 7 mRNA levels” value turned out to be 8%.

In the case of “422103 (antisense eG*e[5mC]*eT*eG*eA*dG*dG*dA*dG*dA*d[5mC]*dA*dA*dT*dG*eG*eT*e[5mC]*eA*eG) [compound 422103]”, the “% Inhibition of human Factor 7 mRNA levels” value was 38%. On the same count and under the same terms, to “422168 (antisense eT*eG*eA*dG*dG*dA*dG*dA*d[5mC]*dA*dA*dT*dG*dG*dT*d[5mC]*dA*eG*eG*eG) [compound 422168]” belongs 30%; to “422105 (antisense eT*eG*eG*e[5mC]*eT*dG*dA*dG*dG*dA*dG*dA*d[5mC]*dA*dA*eT*eG*eG*eT*e[5mC]) [compound 422105]”, 60%; to “422159 (antisense eA*eA*eT*dG*dG*dT*d[5mC]*dA*dG*dG*dG*d[5mC]*dT*dG*dG*dT*dT*eT*eT*eG) [compound 422159]”, 45%.

Staying with this data set, now noted: HepB3 cells; gapmers targeted to nucleobases 13760 to 13789 of SEQ ID NO: 1 (Table 10).
Consider “422178 (antisense eA*e[5mC]*e[5mC]*d[5mC]*dG*d[5mC]*d[5mC]*dG*dG*d[5mC]*dT*d[5mC]*dT*dG*d[5mC]*dT*d[5mC]*eA*eT*e[5mC]) [compound 422178]”, for which the “% Inhibition of human Factor 7 mRNA levels” value was 37%.

Still in this data set, the particulars now being: HepB3 cells; gapmers targeted to nucleobases 14707 to 14732 of SEQ ID NO: 1 (Table 11).
Consider “422131 (antisense eA*eG*e[5mC]*e[5mC]*eT*dG*dA*dG*dG*d[5mC]*d[5mC]*dA*dG*d[5mC]*dA*eG*eA*eT*e[5mC]*eA) [compound 422131]”, for which the “% Inhibition of human Factor 7 mRNA levels” value worked out at 68%. Take “422200 (antisense e[5mC]*e[5mC]*eT*dG*dA*dG*dG*d[5mC]*d[5mC]*dA*dG*d[5mC]*dA*dG*dA*dT*d[5mC]*eA*e[5mC]*eG) [compound 422200]”: the “% Inhibition of human Factor 7 mRNA levels” value amounted to 58%.

Staying with this data set, now noted: HepB3 cells; gapmers targeted to nucleobases 15188 to 15211 of SEQ ID NO: 1 (Table 13).
Regarding “422149 (antisense e[5mC]*eA*eT*dG*dG*dT*dG*dA*dT*dG*d[5mC]*dT*dT*d[5mC]*dT*dG*dA*eA*eT*eT) [compound 422149]”, the “% Inhibition of human Factor 7 mRNA levels” value is given as 61%.
